Source: patent publication US20230000813A1, “COMPOUND FOR THE TREATMENT OF BOVINE OR SWINE RESPIRATORY DISEASE” (Intervet Inc., priority 2016, published 2023)
Converted amounts (≈) assume the structure as drawn. Where two headings read alike, the source gives them in different places.

Tests used:
[1] = system: Pasteurella multocida PM 10775 (080130003051, BRD field isolate); assay: MIC, broth-microdilution (CLSI VET01-A4); type: cell-based
Outline: (§1)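 Visual no-turbidity endpoint over twofold compound dilutions in microdilution trays, interpreted according to CLSI VET01-S3.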

[2] = system: Mannheimia haemolytica MH 6357 (M7/2, reference strain, cattle infection strain); assay: MIC, broth-microdilution (CLSI VET01-A4); type: cell-based
Outline: as §1

[3] = system: Mannheimia haemolytica MH 12587 (1071, BRD field isolate, macrolide-resistance: erm+, E+); assay: MIC, broth-microdilution (CLSI VET01-A4); type: cell-based
Outline: as §1

[4] = system: Pasteurella multocida PM 12080 (IV102277-0093, BRD field isolate); assay: MIC, broth-microdilution (CLSI VET01-A4); type: cell-based
Outline: as §1

[5] = system: Pasteurella multocida PM 6391 (ATCC 43137, reference strain); assay: MIC, broth-microdilution (CLSI VET01-A4); type: cell-based
Outline: as §1

[6] = system: Pasteurella multocida PM 6267 (P 2225 (L386), reference strain, mouse infection strain); assay: MIC, broth-microdilution (CLSI VET01-A4); type: cell-based
Outline: as §1

[7] = system: Mannheimia haemolytica MH 6374 (ATCC 33396, reference strain); assay: MIC, broth-microdilution (CLSI VET01-A4); type: cell-based
Outline: as §1

[8] = system: Mannheimia haemolytica MH 10720 (154, BRD field isolate); assay: MIC, broth-microdilution (CLSI VET01-A4); type: cell-based
Outline: as §1

[9] = system: 40 isolates of Pasteurella (P.) multocida; assay: MIC50/MIC90, broth-microdilution, European respiratory tract isolates; type: cell-based
Method: (§2) The in vitro activity of compounds against 20 isolates of Actinobacillus (A.) pleuropneumoniae, 20 of Bordetella (B.) bronchiseptica, 20 of Histophilus (H.) somni, 40 of Mannheimia (M.) haemolytica and 40 of Pasteurella (P.) multocida collected in different European countries were determined. All bacteria were isolated from the respiratory tract of swine and cattle suffering from respiratory disease. All isolates were epidemiologically unrelated as specified by the different suppliers.
(§3) The minimum inhibitory concentrations (MIC) of compounds according to the invention were determined by the broth-microdilution method according to CLSI document VET01-A4.
(§4) Microdilution trays containing a doubling dilution series of the test compounds were used for the tests.
(§5) The MIC results were interpreted according to the CLSI documents VET01-S3. The lowest concentration of compound at which no visible growth (i.e. no turbidity) detected by the unaided eye was recorded as the MIC.

[10] = system: 20 isolates of Actinobacillus (A.) pleuropneumoniae; assay: as above; type: cell-based
Method: as §2, §3, §4, §5

[11] = system: 20 isolates of Histophilus (H.) somni; assay: as above; type: cell-based
Method: as §2, §3, §4, §5

[12] = system: 40 isolates of Mannheimia (M.) haemolytica; assay: as above; type: cell-based
Method: as §2, §3, §4, §5

[13] = system: 20 isolates of Bordetella (B.) bronchiseptica; assay: as above; type: cell-based
Method: as §2, §3, §4, §5

[14] = system: naturally occurring bovine respiratory disease (BRD); assay: Treatment of naturally occurring bovine respiratory disease under U.S. feedlot conditions (Example 11); type: in vivo, weaned beef cattle calves
Description: The effectiveness and safety of compound 329 for the treatment of naturally occurring bovine respiratory disease (BRD) under typical U.S. feedlot conditions when administered subcutaneously was investigated. The therapeutic efficacy of the two antibacterials was compared to a negative control group (sterile saline) and a positive control group (Nuflor® Injectable Solution).
Weaned beef cattle calves (crossbreds of Angus, Charolais and Limousin) were enrolled in the study and were allocated to groups of 20 animals per treatment group. Calves were enrolled in the study with body weights that ranged from 123 to 262 kg.
The bovine respiratory disease observed in this 10-day natural infection study was moderate to severe across the treatment groups and typical of that observed in commercial feed yards in the U.S.
Animals were dosed subcutaneously once on the day of enrollment (Day 0) with compound 329 or the control groups. Compound 329 was dosed at 10 mg/kg body weight. Nuflor® was dosed at 40 mg/kg body weight. Sterile saline was dosed at 2 mL/15 kg body weight.

[15] = D 0 to D 10, 20 calves per group, C. 329 10 mg/kg, Nuflor 40 mg/kg SC once
[16] = natural BRD, 20 calves per group, SC once on Day 0: C. 329 10 mg/kg, Nuflor 40 mg/kg
[17] = natural BRD, calves removed before D 10 included, C. 329 10 mg/kg, Nuflor 40 mg/kg SC once

For `CC(C)(N)C(NC(=O)c1ccc(C#Cc2ccc(CNC3CC3)cc2)cc1)C(=O)NO` (stereo not drawn) [C. 329], the “MIC PM 10775” value ([1]; Pasteurella multocida PM 10775) was “<=0.1 μM”, the MIC ([1]; strain PM 10775) was ≤0.016 µg/mL and the MIC ([2]; Mannheimia haemolytica MH 6357, read-out: MIC MH 6357) was 1.6 µM. The MIC ([2]; strain MH 6357) was 0.5 µg/mL, the “MIC MH 12587” value ([3]; Mannheimia haemolytica MH 12587, macrolide-resistant) was 1.6 µM (≈ 0.673 µg/mL) and the MIC ([3]; strain MH 12587, macrolide-resistant) was 0.5 µg/mL (≈ 1.19 µM). The “MIC PM 12080” value ([4]; Pasteurella multocida PM 12080) was “<=0.1 μM”, the MIC ([4]; strain PM 12080) was 0.032 µg/mL (≈ 0.0761 µM) and the “MIC PM 6391” value ([5]; Pasteurella multocida PM 6391) was “<=0.1 μM”. For the same compound, the MIC ([5]; strain PM 6391) was 0.063 µg/mL (≈ 0.15 µM), the “MIC PM 6267” value ([6]; Pasteurella multocida PM 6267) was “<=0.1 μM” and the MIC ([6]; strain PM 6267) was ≤0.016 µg/mL. For the same compound, the MIC ([7]; Mannheimia haemolytica MH 6374, read-out: MIC MH 6374) was 0.8 µM, the MIC ([7]; strain MH 6374) was 0.25 µg/mL and the MIC ([8]; Mannheimia haemolytica MH 10720, read-out: MIC MH 10720) was 0.4 µM. It also gave an MIC ([8]; strain MH 10720) of 0.5 µg/mL, an MIC50 [9] of 0.032 µg/mL (≈ 0.0761 µM) and an MIC90 [9] of 0.032 µg/mL (≈ 0.0761 µM). It also gave an MIC50 [10] of 0.5 µg/mL (≈ 1.19 µM), an MIC90 [10] of 0.5 µg/mL (≈ 1.19 µM) and an MIC50 [11] of 0.25 µg/mL (≈ 0.595 µM). For the same compound, the MIC90 [11] was 0.25 µg/mL (≈ 0.595 µM), the MIC50 [12] was 0.5 µg/mL (≈ 1.19 µM) and the MIC90 [12] was 1 µg/mL (≈ 2.38 µM). The MIC50 [13] was 2 µg/mL (≈ 4.76 µM), the MIC90 [13] was 4 µg/mL (≈ 9.51 µM) and the “Efficacy in a field like setting, naturally occurring BRD” value ([14]; 10 mg/kg SC once, compared to saline and Nuflor, conclusion in words) was “demonstrated”. The “Mortalities during the study” value ([14]; 10-day natural BRD study, C. 329 10 mg/kg, Nuflor 40 mg/kg SC once) was 5%, the “Removals from the study, Percentage” value [14, 15] was 5% and the “Removals from the study, Total” value [14, 15] was 1. The “Removals from the study, D 0” value [14, 16] was 0, the “Removals from the study, D 1” value [14, 16] was 0 and the “Removals from the study, D 2” value [14, 16] was 0. For the same compound, the “Removals from the study, D 3” value [14, 16] was 0, the “Removals from the study, D 4” value [14, 16] was 0 and the “Removals from the study, D 5” value [14, 16] was 0. The “Removals from the study, D 6” value [14, 16] was 0, the “Removals from the study, D 7” value [14, 16] was 0 and the “Removals from the study, D 8” value [14, 16] was 0. For the same compound, the “Removals from the study, D 9” value [14, 16] was 1, the “Removals from the study, D 10” value [14, 16] was 0 and the “Average Body weight on D 0” value ([14]; natural BRD, day of enrollment, C. 329 10 mg/kg, Nuflor 40 mg/kg SC once) was 401.2 lb. For the same compound, the “Average Body weight on last day in study” value [14, 17] was 406.3 lb, the “Average daily body weight gain” value [14, 17] was 0.5 lb and the “daily body weight gains over the study period” value ([14]; natural BRD, in words) was “positive daily body weight gains”.
